The source of these data is patent US4845123A, “Reduction in vivo of the inappropriate levels of endogenous and environmental-derived compounds by sustained-release inhibitors of β- g” (priority 1985, dated 1989).

As a reminder, the inhibition is the drop in the measured response relative to a control, in per cent. A higher inhibition goes with a response far below the control.

Where “and” joins values, the source holds several entries; their conditions need not be identical. Equal values may be shown once. Entries after “also recorded” stand apart in the source; their conditions may differ. Read-outs that look alike come from different tables or passages of the source.

The text on data set [1]: In the long term feeding experiments in which CGT intake was over an extended period of time, at the termination of the experiment the following organs were examined macroscopically and weighed: liver, kidneys, adrenals.
The adrenals were slightly (ca 20%) smaller by weight in the group receiving 10% CGT supplemented chow.

Data set [2] deals with Estrogen and Androgen Levels.
Data set [3] has as its target T1, serum β-glucuronidase (Rattus norvegicus, UniProt P06760).
T1 sequence (P06760 23-648): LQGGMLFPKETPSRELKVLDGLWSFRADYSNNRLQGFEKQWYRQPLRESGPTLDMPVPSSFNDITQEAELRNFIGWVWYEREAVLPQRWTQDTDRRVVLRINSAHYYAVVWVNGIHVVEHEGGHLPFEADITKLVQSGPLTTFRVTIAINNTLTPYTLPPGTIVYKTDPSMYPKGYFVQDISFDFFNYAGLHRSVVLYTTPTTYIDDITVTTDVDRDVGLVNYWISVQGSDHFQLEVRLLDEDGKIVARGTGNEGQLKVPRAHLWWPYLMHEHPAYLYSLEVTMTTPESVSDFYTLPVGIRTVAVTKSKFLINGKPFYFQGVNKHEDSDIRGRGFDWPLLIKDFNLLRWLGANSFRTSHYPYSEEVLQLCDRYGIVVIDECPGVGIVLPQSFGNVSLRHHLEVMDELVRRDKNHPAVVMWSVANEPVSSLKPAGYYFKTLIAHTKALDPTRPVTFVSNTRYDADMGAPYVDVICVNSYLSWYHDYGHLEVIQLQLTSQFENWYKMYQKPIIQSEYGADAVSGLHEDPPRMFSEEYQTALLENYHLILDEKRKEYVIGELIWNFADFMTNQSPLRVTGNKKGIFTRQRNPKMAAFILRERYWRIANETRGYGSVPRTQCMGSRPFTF
Briefly: in vivo. In kind it is in vivo. Here is the method:
GL was synthesized and microencapsulated to give sustained-release GL (EGL), by an established procedure used to microencapsulate ascorbic acid, as reported in Samejima, M. et al., Chem. Pharm. Bull., (Tokyo) 1982, 30:2894-2899. In this procedure, the GL as a fine powder is added to a stirred mixture of cyclohexane, polyisobutylene as coacervation-inducing agent and ethylcellulose as wall-forming material. The addition of GL is at 78° C., then phase separation is induced by lowering the temperature first to 40° C., then to 25° C. The microcapsules, which have thick walls, are washed with cyclohexane and dried. […] DAGDL, calcium D-glucarate (CGT), and potassium hydrogen D-glucarate (PGT) were synthesized. For comparison of efficacy of the inhibitors, 1,5 mmoles/kg (GL, EGL or DAGDL) or 4.5 mmoles/kg (CGT or PGT) of the inhibitor in 1.0 ml of sesame oil or vehicle only (controls) was administered to rats by stomach tube at zero time. Blood samples were obtained from different rats by cardiac puncture under ether anesthesia. The serum was prepared and assayed for β-glucuronidase activity using a commerical diagnostic kit sold by Sigma Chemical Company, St. Louis, MO. The assay is based on the hydrolysis of phenolphthalein-glucuronide and quantitation of phenolphthalein in alkaline medium at […]. For tests of anti-carcinogencity, the inhibitors were administered by stomach tube in 1.0 ml of sesame oil 30 minutes before and again at 2.5 hours after the carcinogen, for DAGDL, or 3 hours and 30 minutes before the carcinogen, for EGL, CGT, and PGT. The controls received sesame oil only by stomach tube.
At the time periods indicated above blood samples were obtained from rats under ether aneathesia by cardiac puncture, the serum was then prepared and assayed for β-glucuronidase activity using a commercial diagnostic kit sold by Sigma Chem. Co., St. Louis, MO.
For the inhibition of the initiation stage, CGT was given by gavage in two doses (4.5 mmoles/kg/dose) at 3 hours and again at 0.5 hours before carcinogen administration. […] The concentrations of CGT were incorporated into the powdered chow diet. The blood samples were obtained 10 days after the initiation of the CGT feeding.
DAGDL or GL (1.5 mmol/kg) in 1.0 ml of sesame oil, or vehicle only (controls) was administered to rats by stomach tube at zero time. […] The serum was prepared and assayed for β-glucuronidase activity using a commercial diagnostic kit sold by Sigma Chemical Company, St. Louis, MO. The assay is based on the hydrolysis of phenolphthalein-glucuronide and quantitation of phenolphtalein in alkaline medium at 550 nm.

The conditions of data set [4]: rat, in vivo, ip. The method, then: TCDD was administered i.p. in a single dose of 40 μg/kg in sesame oil (0.5 ml) to 125 gm female Sprague Dawley rats. One group of 4 rats received 2 doses of CGT (4.5 mmole/kg) in sesame oil (1.0 ml) by stomach tube at 3 hours and a second dose at 0.5 hours before treatment with TCDD. A second, TCDD-treated group received oil only in place of the CGT. Control rats received oil only by stomach tube and i.p. injection.

The next data set deals with 60 kd oncofetal protein. Briefly: effect of β-glucuronidase inhibitors on carcinogen induction of the 60 kd factor in plasma (cell-free RNA transport assay). In kind it is in vivo, rat.
Data set [5] addresses T1, serum β-glucuronidase. In kind it is in vivo. To be noted: 1.0 mmoles/kg i.g., assayed 1 hour after administration.
Data set [6] has as its system tumor initiation by 7,12-dimethylbenzanthracene (DMBA). To be noted: Walaszek et al. 1984; cited from earlier work.
The nature of data set [7]: acute toxicity (weight loss) of N-methylnitrosourea. In kind it is in vivo, rat. To be noted: 21 days after treatment with MNU.
For data set [8], the system named is bladder tumor. To be noted: Miyakawa et al. 1973; DAGDL given at same time as carcinogen; cited from earlier work.
The conditions of data set [9]: Furuno et al. 1975; cited from earlier work.
The subject of data set [10] is bladder tumor. The note with it: Uemura et al. 1975; cited from earlier work.
For data set [11], the target named is T1, serum β-glucuronidase. The note with it: Iida et al. 1965; cited from earlier work.
Where [12] appears, read: +CGT, 50 day old Sprague Dawley female rats.
The mark [13] stands for this setting: carcinogen 7,12-Dimethylbenz[a]anthracene, 21 days post-treatment.
The mark [14] stands for this setting: +DAGDL (1.5% DAGDL diet), female Sprague Dawley rats.
Where [15] appears, read: +DAGDL (1.5% DAGDL diet), male Sprague Dawley rats.
Setting [16] is: second dose of DAGDL 3 hours after the initial dose, 2.5 hours after carcinogen.

For the compound `O=C([O-])[C@@H](O)[C@@H](O)[C@H](O)[C@@H](O)C(=O)[O-].[Ca+2]` [CGT, calcium D-glucarate], the “decrease of adrenal weight” value in data set [1] (rat, in vivo) was approximately 20%. In data set [1] (rat, in vivo), the “food intake and weight-gain compared with chow diet” value is “essentially identical to those on chow diet”. The “liver and kidney weights compared with controls” value in data set [1] (rat, in vivo) is on record as “essentially identical in weight”. In data set [2] (setting [12]), the “17-Ketosteroids (urinary excretion)” value was 13 μg/100 g body wt × 24 hrs. Besides, the “Estradiol (serum)” value in [2] (setting [12]) came out at 39 pg/mL. Further, the “reduction of serum estradiol level” value in [2] (CGT diet, female rats) was determined as 24%. In addition, the “reduction of urinary 17-ketosteroid level” value in data set [2] (CGT diet, female rats) came out at 55%. Further, the “reduction of serum β-glucuronidase activity” value at serum β-glucuronidase [3] (rat, in vivo) is 50% and 80%. The “reduction of serum β-glucuronidase levels by dietary CGT” value on serum β-glucuronidase [3] (rat, in vivo) worked out at 50%. Further, the “time-course of serum β-glucuronidase inhibition” value on serum β-glucuronidase [3] (rat, in vivo) was “prolonged inhibition”. For the same compound, the “effect on TCDD toxicity” value in data set [4] was “definite anti-"TCDD toxicity" effect”. Also, the “Percent Inhibition of the induction of the 60 kd factor” value (“Percent Inhibition” for short) is 60% in the data set on 60 kd oncofetal protein (carcinogen 1,2-Dimethylhydrazine, 21 days post-treatment); 50% in the data set with 60 kd oncofetal protein (carcinogen 1-Nitropyrene, 21 days post-treatment); 49% in the data set on 60 kd oncofetal protein (carcinogen 2-Naphthylamine, 21 days post-treatment); 43% with 60 kd oncofetal protein (carcinogen 3-Methylcholanthrene, 21 days post-treatment); 83% in the data set on 60 kd oncofetal protein (setting [13]); 53% and > 50% with 60 kd oncofetal protein (carcinogen N-Nitrosodibutylamine, 21 days post-treatment). The “Percent Inhibition” value with 60 kd oncofetal protein (carcinogen N-Nitrosodiethylamine, 21 days post-treatment) is 41%; in the data set with 60 kd oncofetal protein (carcinogen N-Nitrosodimethylamine, 21 days post-treatment) it was 76%; with 60 kd oncofetal protein (carcinogen N-Nitrosoethylurea, 21 days post-treatment), 68%; with 60 kd oncofetal protein (carcinogen N-Nitrosomethylurea, 21 days post-treatment), 69%; with 60 kd oncofetal protein (carcinogen Safrole, 21 days post-treatment) it was 45%; in the data set on 60 kd oncofetal protein (rat, in vivo) it was 86% and 70%.

Consider `CC(=O)O[C@@H]1C(=O)O[C@H]2[C@@H]1OC(=O)[C@@H]2OC(C)=O` [DAGDL, 2,5-di-O-acetyl-D-glucaro-1,4;6,3-dilactone], for which, in data set [1] (DAGDL supplemented chow), the “decrease of adrenal weight” value is recorded as 20-30%. The “reduction of serum β-glucuronidase activity” value is listed as 50% at serum β-glucuronidase [5] and 80% on serum β-glucuronidase [3] (1.5 mmoles/kg i.g., assayed 1 hour after administration). In addition, the “effect on initiation of tumor by DMBA” value in [6] is “inhibited”. The “sex hormone levels” value in data set [2] (1.5% DAGDL diet, male and female rats) was “reduces sex hormone levels; also recorded: lower steady state level of steroid hormones”. The “17-Ketosteroids (urinary excretion)” value in [2] (setting [14]) came to 12 μg/100 g body wt × 24 hrs; in [2] (setting [15]) it was 17 μg/100 g body wt × 24 hrs. In addition, the “Estradiol (serum)” value in data set [2] (setting [14]) turned out to be 140 pmol/L. In [2] (setting [15]), the “Testosterone (serum)” value turned out to be 9 nmol/L. Besides, the “time to 50% inhibition of serum β-glucuronidase” value at serum β-glucuronidase [3] (1.5 mmol/kg) was not above 0.5 h. Also, the “time for which 50% inhibition or greater is maintained” value on serum β-glucuronidase [3] (1.5 mmol/kg, single dose) is “approximately 3 hours”. Also, the “effect of carcinogen co-administration on degree of β-glucuronidase inhibition” value on serum β-glucuronidase [3] (carcinogen co-administered) is reported as “not influenced significantly”. Further, the inhibition at 1500 µmol/kg at serum β-glucuronidase [3] (rat, 1.5 mmol/kg, within 0.5 hour of administration) stood at 50%. Also, the “duration of approximately 50% inhibition after second dose” value at serum β-glucuronidase [3] (setting [16]) is “up to 6 hours”. Also, the “inhibition of β-glucuronidase after second dose” value against serum β-glucuronidase [3] (setting [16]) was “approximately 50%”. In addition, at serum β-glucuronidase [3] (single i.g. dose 1.5 mmoles/kg (GL, DAGDL, EGL)), the “time-course of serum β-glucuronidase inhibition” value is “marked and prolonged inhibition; also recorded: more prolonged inhibition”. Besides, in the data set on 60 kd oncofetal protein (504 h), the “60 kd factor in plasma, MNU with inhibitor” value came to 1.2 Units. Also, the “Percent Inhibition” value in the data set on 60 kd oncofetal protein (carcinogen 2-Acetylaminofluorene, 21 days post-treatment) was 66%; in the data set on 60 kd oncofetal protein (setting [13]), 77%; in the data set on 60 kd oncofetal protein (carcinogen Benzo[a]pyrene, 21 days post-treatment), 76%. Further, the “difference in toxicity-induced weight loss of DAGDL-treated and non-treated rats” value in [7] is reported as “approximately 100 g”. Further, the “effect on bladder tumor incidence with 2-AAF” value with bladder tumor [8] is “did not disclose any significant difference”. Besides, in data set [9], the “clearance of antibiotics which cause kidney damage” value was “inconclusive results”. In addition, the “inhibition of N-butyl-N-(4-butanol)nitrosamine-mediated bladder tumor” value with bladder tumor [10] is listed as “unsuccessful”. Further, the “potency as in vivo β-glucuronidase inhibitor” value on serum β-glucuronidase [11] is recorded as “potent”.
